Source: patent US20020137929A1, “1 - (3-heterocyclylphenyl) isothiourea, -isourea, -guanidine and -amidine herbicidal agents” (Intellectual Property Department, BASF Aktiengesellschaft, priority 1998, published 2002)

What was measured:
[1] = tested on: ECHORC (Watergrass (Calif.)); experiment: Postemergence weed control under flooded paddy conditions; format: in vivo, Echinochloa oryzoides; details: postemergence weeds
How it was run: (§1)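 Injury ratings (0–9 scale covering stand, vigor, malformation, size, chlorosis and overall appearance versus control) were made three to four weeks after treatment. Test material, about 0.0313 to 0.500 kg/ha a.i. in 50/50 v/v aqueous/acetone, was added to flood water 1.5 to 3 cm deep over 3 to 5 cm weeds and 1.5 to 2.5 leaf rice.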

[2] = tested on: IPOSS (Morningglory Spp.); experiment: Postemergence herbicidal evaluation; format: in vivo, Ipomoea Spp.
Method: In the tests, seedling plants are grown in jiffy flats for about two weeks. The test compounds are dispersed in 50/50 acetone/water mixtures containing 0.5% TWEEN®20, a polyoxyethylene sorbitan monolaurate surfactant of Atlas Chemical Industries, in sufficient quantities to provide the equivalent of about 0.0156 kg to 0.500 kg per hectare of active compound when applied to the plants through a spray nozzle operating at 40 psi for a predetermined time. After spraying, the plants are placed on greenhouse benches and are cared for in accordance with conventional greenhouse procedures. From four to five weeks after treatment, the seedling plants are examined and rated according to the rating system set forth below. Where more than one test is involved for a given compound, the data are averaged.
Plant species employed in these evaluations are reported by header abbreviation, common name and scientific name.
(§2) Results of herbicide evaluation are expressed on a rating scale (0-9). The scale is based upon a visual observation of plant stand, vigor, malformation, size, chlorosis and overall plant appearance as compared with a control.

[3] = tested on: GLXMA (Soybean); experiment: Preemergence herbicidal evaluation; format: in vivo, Glycine max; details: rated 4-5 weeks after treatment
Description: as §2
The preemergence herbicidal activity of the test compounds of the present invention is exemplified by the following tests in which the seeds of a variety of monocotyledonous and dicotyledonous plants are separately mixed with potting soil and planted on top of approximately one inch of soil in separate pint cups. After planting, the cups are sprayed with the selected aqueous acetone solution containing test compound in sufficient quantity to provide the equivalent of about 0.0156 to 0.500 kg per hectare of test compound per cup. The treated cups are then placed on greenhouse benches, watered and cared for in accordance with conventional greenhouse procedures. From four to five weeks after treatment, the tests are terminated and each cup is examined and rated according to the rating system provided in Example 37.
The compounds evaluated are reported by compound number given in Example 37.

[4] = tested on: CYPIR (Rice Flatsedge); experiment: Postemergence weed control under flooded paddy conditions; format: in vivo, Cyperus iria; details: postemergence weeds
How it was run: as §1

[5] = tested on: MOOVA (Monochoria); experiment: as above; format: in vivo, Monochoria vaginalis; details: postemergence weeds
How it was run: as §1

[6] = tested on: IPOSS (Morningglory Spp.); experiment: Preemergence herbicidal evaluation; format: in vivo, Ipomoea Spp.; details: rated 4-5 weeks after treatment
How it was run: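 Sown cups got a single aqueous acetone spray of test compound (roughly 0.0156–0.500 kg/ha) before seedlings emerged. Evaluation, 4–5 weeks on, used a 0–9 visual scale covering plant stand, vigor, size, malformation, chlorosis and general appearance compared with controls.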

[7] = tested on: GLXMA (Soybean); experiment: Postemergence herbicidal evaluation; format: in vivo, Glycine max
How it was run: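 First, seedlings were raised for around two weeks. Next, test material in 50/50 acetone/water containing 0.5% TWEEN 20 was sprayed through a nozzle at 40 psi, equivalent to about 0.0156–0.500 kg/ha. Finally, after 4–5 weeks in the greenhouse, plants were rated 0–9.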

[8] = rate 0.0313 kg/ha, 3-4 weeks after treatment
[9] = rate 0.0625 kg/ha, 3-4 weeks after treatment
[10] = rate 0.1250 kg/ha, 3-4 weeks after treatment
[11] = rate 0.2500 kg/ha, 3-4 weeks after treatment
[12] = rate 0.5000 kg/ha, 3-4 weeks after treatment
[13] = Rate 0.0313 kg/ha, rated 3 to 4 weeks after treatment
[14] = Rate 0.0625 kg/ha, rated 3 to 4 weeks after treatment
[15] = Rate 0.1250 kg/ha, rated 3 to 4 weeks after treatment
[16] = Rate 0.2500 kg/ha, rated 3 to 4 weeks after treatment

CC1SC(=Nc2cc(N3C(=O)C4=C(CCCC4)C3=O)c(F)cc2Cl)N(C)C1=O (stereo not shown) [Compound 4]
Herbicidal rating ECHORC [1, 8]: 1.0
Herbicidal rating ECHORC [1, 9]: 2.0
Herbicidal rating ECHORC [1, 10]: 3.5
Herbicidal rating ECHORC [1, 11]: 4.0
Herbicidal rating ECHORC [1, 12]: 5.0
IPOSS herbicidal rating ([2]; rate 0.0313 kg/ha): 0.0
IPOSS herbicidal rating ([2]; rate 0.0625 kg/ha): 0.0
IPOSS herbicidal rating ([2]; rate 0.1250 kg/ha): 0.0
IPOSS herbicidal rating ([2]; rate 0.2500 kg/ha): 1.0
IPOSS herbicidal rating ([2]; rate 0.5000 kg/ha): 4.0
GLXMA preemergence herbicidal rating ([3]; rate 0.1250 kg/ha): 0.0
GLXMA preemergence herbicidal rating ([3]; rate 0.2500 kg/ha): 2.0
GLXMA preemergence herbicidal rating ([3]; rate 0.5000 kg/ha): 4.0
Herbicidal rating CYPIR [4, 8]: 0.0
Herbicidal rating CYPIR [4, 9]: 2.0
Herbicidal rating CYPIR [4, 10]: 4.5
Herbicidal rating CYPIR [4, 11]: 6.5
Herbicidal rating CYPIR [4, 12]: 9.0
Herbicidal rating MOOVA [5, 8]: 1.0
Herbicidal rating MOOVA [5, 9]: 3.5
Herbicidal rating MOOVA [5, 10]: 4.0
Herbicidal rating MOOVA [5, 11]: 5.5
Herbicidal rating MOOVA [5, 12]: 8.0
IPOSS preemergence herbicidal rating ([6]; rate 0.1250 kg/ha): 0.0
IPOSS preemergence herbicidal rating ([6]; rate 0.2500 kg/ha): 2.0
IPOSS preemergence herbicidal rating ([6]; rate 0.5000 kg/ha): 9.0
GLXMA herbicidal rating ([7]; rate 0.0313 kg/ha): 2.0
GLXMA herbicidal rating ([7]; rate 0.0625 kg/ha): 2.5
GLXMA herbicidal rating ([7]; rate 0.1250 kg/ha): 4.5
GLXMA herbicidal rating ([7]; rate 0.2500 kg/ha): 4.5
GLXMA herbicidal rating ([7]; rate 0.5000 kg/ha): 4.5

CCOC(=O)CN1C(=O)C(Cc2ccccc2OC(C)C(=O)O)S/C1=N/c1cc(-n2c(=O)cc(C(F)(F)F)n(C)c2=O)c(F)cc1Cl (stereo not shown) [Compound 114, 5-[o-(1-Carboxyethoxy)benzyl]-2-{{2-chloro-5-[3,6-dihydro-3-methyl-2,6-dioxo-4-(trifluoromethyl)-1(2H)-pyrimidinyl]-4-fluorophenyl}imino}-4-oxo-3-thiazolidineacetic acid, 3-ethyl ester]
Herbicidal rating ECHORC [1, 13]: 0.0
Herbicidal rating ECHORC [1, 14]: 0.0
Herbicidal rating ECHORC [1, 15]: 0.0
Herbicidal rating ECHORC [1, 16]: 0.0
Herbicidal rating CYPIR [4, 13]: 0.0
Herbicidal rating CYPIR [4, 14]: 0.0
Herbicidal rating CYPIR [4, 15]: 4.0
Herbicidal rating CYPIR [4, 16]: 7.0
Herbicidal rating MOOVA [5, 13]: 6.0
Herbicidal rating MOOVA [5, 14]: 8.0
Herbicidal rating MOOVA [5, 15]: 9.0
Herbicidal rating MOOVA [5, 16]: 9.0
